From paper PMC10141580, “Cyclic Dichalcogenides Extend the Reach of Bioreductive Prodrugs to Harness Thiol/Disulfide Oxidoreductases: Applications to seco-Duocarmycins Targeting the Thioredoxin System” (ACS Central Science, 2023)
pIC50: −log10 of the molar value. “And” between values parts separate entries of the source, which are not always exact repeats. Equal entries are not always repeated. Where two headings read alike, the source gives them in different places.

Test system: panel of 140 standard cancer cell lines
Assay: ProliFiler-140 cancer cell line screen (CellTiterGlo, 72 h)
Assay type: cell-based
Details: for IC50 / pIC50: Homo sapiens
Procedure: Incubations were performed for 72 h before automated viability readout with CellTiterGlo (Figure 8).
End of Figure S11 (part 5 of 5): ProliFiler-140 cancer cell line screening for cytotoxicity of the prodrugs.
8-data-point dose response curves from CellTiter-Glo® viability readout.
ProliFiler-140 cell line panel part V

COc1cc2cc(C(=O)N3C[C@@H](CCl)c4c3cc(OC(=O)N3CCN(C(=O)CCC(=O)N5CCN(C)CC5)[C@H]5CSSC[C@H]53)c3ccccc43)[nH]c2c(OC)c1OC [P-SS66C-CBI-TMI]
IC50 (KG-1a, read-out: IC50 [M] (ProliFiler-140), KG-1 a (Blood)): 1.07e-07 M
IC50 (KMS-12-BM, read-out: IC50 [M] (ProliFiler-140), KMS-12-BM (Blood)): 3.3e-08 M
IC50 (LN-229, read-out: IC50 [M] (ProliFiler-140), LN229 (Brain)): 1.33e-07 M
IC50 (LNCaP, read-out: IC50 [M] (ProliFiler-140), LnCap (Prostate)): 2.7e-08 M
IC50 (LoVo, read-out: IC50 [M] (ProliFiler-140), LOVO (Colon)): 1.93e-08 M
pIC50 (MCF7, MCF-7): 7.51
IC50 (MCF7, read-out: IC50 [M] (ProliFiler-140), MCF-7 (Breast)): 3.1e-08 M
IC50 (MDA-MB-231, read-out: IC50 [M] (ProliFiler-140), MDA MB 231 (Breast)): 1.36e-07 M
IC50 (MDA-MB-435, MDA MB 435 (Skin), read-out: IC50 [M] (ProliFiler-140)): 1.3e-07 M
pIC50 (MDA-MB-468, MDA-MB-468): 7.72
IC50 (MDA-MB-468, read-out: IC50 [M] (ProliFiler-140), MDA-MB-468 (Breast)): 1.9e-08 M
IC50 (MEC1, read-out: IC50 [M] (ProliFiler-140), MEC-1 (Blood)): 1.1e-08 M
IC50 (MIA PaCa-2, read-out: IC50 [M] (ProliFiler-140), Mia PaCA 2 (Pancreas)): 8.56e-08 M
IC50 (MKN-1, read-out: IC50 [M] (ProliFiler-140), MKN-1 (Stomach)): 1.4e-07 M
IC50 (MKN-45, read-out: IC50 [M] (ProliFiler-140), MKN-45 (Stomach)): 8.2e-08 M
IC50 (MOLM-13, read-out: IC50 [M] (ProliFiler-140), MOLM-13 (Blood)): 5.3e-09 M
IC50 (MOLT-4, read-out: IC50 [M] (ProliFiler-140), MOLT-4 (Blood)): 8.6e-09 M
IC50 (MV4-11, read-out: IC50 [M] (ProliFiler-140), MV4-11 (Blood)): 1.5e-09 M
IC50 (NALM-6, read-out: IC50 [M] (ProliFiler-140), NALM-6 (Blood)): 2.47e-09 M
IC50 (NCI-H82, read-out: IC50 [M] (ProliFiler-140), NCI-H82 (Lung)): 8.8e-08 M
IC50 (NCI-H292, read-out: IC50 [M] (ProliFiler-140), NCI-H292 (Lung)): 3.8e-08 M
IC50 (NCI-H441, read-out: IC50 [M] (ProliFiler-140), NCI-H441 (Lung)): 5.05e-08 M
IC50 (NCI-H460, read-out: IC50 [M] (ProliFiler-140), H460 (Lung)): 5.5e-09 M
IC50 (NCI-H838, read-out: IC50 [M] (ProliFiler-140), NCI-H838 (Lung)): 7.4e-08 M
IC50 (NCI-H1048, read-out: IC50 [M] (ProliFiler-140), NCI-H1048 (Lung)): 4e-09 M
IC50 (NCI-H1299, read-out: IC50 [M] (ProliFiler-140), H1299 (Lung)): 5.38e-08 M
IC50 (NCI-H1437, read-out: IC50 [M] (ProliFiler-140), NCI-H1437 (Lung)): 1.85e-08 M
IC50 (NCI-H1563, read-out: IC50 [M] (ProliFiler-140), NCI-H1563 (Lung)): 1.1e-07 M
IC50 (NCI-H1573, read-out: IC50 [M] (ProliFiler-140), NCI-H1573 (Lung)): 9e-08 M
IC50 (NCI-H1581, read-out: IC50 [M] (ProliFiler-140), NCI-H1581 (Lung)): 4.66e-08 M
IC50 (NCI-H1703, read-out: IC50 [M] (ProliFiler-140), NCI-H1703 (Lung)): 5.1e-08 M
IC50 (NCI-H1838, read-out: IC50 [M] (ProliFiler-140), NCI-H1838 (Lung)): 7.7e-08 M
IC50 (NCI-H2009, read-out: IC50 [M] (ProliFiler-140), NCI-H2009 (Lung)): 2.66e-08 M
IC50 (NCI-H2228, read-out: IC50 [M] (ProliFiler-140), H2228 (Lung)): 4.53e-08 M
IC50 (NCI-H2286, read-out: IC50 [M] (ProliFiler-140), NCI-H2286 (Lung)): 1.7e-08 M
IC50 (NCI-N87, read-out: IC50 [M] (ProliFiler-140), NCI-N87 (Stomach)): 7.5e-08 M
IC50 (OCI-AML-3, read-out: IC50 [M] (ProliFiler-140), OCI-AML3 (Blood)): 1.3e-08 M
IC50 (OCI-AML-5, read-out: IC50 [M] (ProliFiler-140), OCI-AML5 (Blood)): 6e-09 M
IC50 (OCI-LY19, read-out: IC50 [M] (ProliFiler-140), OCI-LY19 (Blood)): 2.83e-09 M
IC50 (OPM-2, read-out: IC50 [M] (ProliFiler-140), OPM-2 (Blood)): 2.61e-08 M
IC50 (OVCAR-3, read-out: IC50 [M] (ProliFiler-140), OVCAR-3 (Ovary)): 7.9e-08 M
IC50 (P31-FUJ, read-out: IC50 [M] (ProliFiler-140), P31/FUJ (Blood)): 2.3e-08 M
IC50 (PANC-1, read-out: IC50 [M] (ProliFiler-140), PANC-1 (Pancreas)): 2e-07 M
IC50 (RL95-2, read-out: IC50 [M] (ProliFiler-140), RL95-2 (Endometrium)): 1.25e-07 M
pIC50 (RPMI-8226, RPMI 8226): 7.92
IC50 (RPMI-8226, read-out: IC50 [M] (ProliFiler-140), RPMI 8226 (Blood)): 1.19e-08 M
IC50 (SAOS-2, read-out: IC50 [M] (ProliFiler-140), Saos-2 EC (Bone)): 6.63e-08 M
IC50 (SCLC-21H, read-out: IC50 [M] (ProliFiler-140), SCLC-21H (Lung)): 2.56e-08 M
IC50 (SJSA-1, read-out: IC50 [M] (ProliFiler-140), SJSA-1 (Bone)): 9.77e-08 M
IC50 (SK-BR-3, read-out: IC50 [M] (ProliFiler-140), SK-BR-3 (Breast)): 4.2e-08 M
IC50 (SK-ES1, read-out: IC50 [M] (ProliFiler-140), SK-ES-1 (Bone)): 2.71e-09 M
IC50 (SK-LU-1, read-out: IC50 [M] (ProliFiler-140), SK-LU-1 (Lung)): 2.3e-08 M
IC50 (SK-MEL3, read-out: IC50 [M] (ProliFiler-140), SK-MEL-3 (Skin)): 1.6e-07 M
IC50 (SK-N-FI, read-out: IC50 [M] (ProliFiler-140), SK-N-FI (Brain)): 1.39e-07 M
IC50 (SK-N-MC, read-out: IC50 [M] (ProliFiler-140), SK-N-MC (Brain)): 1.6e-09 M
IC50 (SK-N-SH, read-out: IC50 [M] (ProliFiler-140), SK-N-SH (Brain)): 1.1e-07 M
IC50 (SK-OV-3, read-out: IC50 [M] (ProliFiler-140), SK-OV3 (Ovary)): 3.72e-08 M
IC50 (SNU1, read-out: IC50 [M] (ProliFiler-140), SNU-1 (Stomach)): 2.3e-08 M
IC50 (SNU-16, read-out: IC50 [M] (ProliFiler-140), SNU-16 (Stomach)): 6.23e-08 M
IC50 (SU-DHL-5, read-out: IC50 [M] (ProliFiler-140), SU-DHL-5 (Blood)): 2.6e-09 M
IC50 (SW480, read-out: IC50 [M] (ProliFiler-140), SW480 (Colon)): 5.51e-08 M
IC50 (SW948, read-out: IC50 [M] (ProliFiler-140), SW948 (Colon)): 1.43e-07 M
IC50 (SW1783, read-out: IC50 [M] (ProliFiler-140), SW-1783 (Brain)): 4.85e-08 M
pIC50 (SW-620, SW620): 6.82
IC50 (SW-620, read-out: IC50 [M] (ProliFiler-140), SW620 (Colon)): 1.53e-07 M
IC50 (SiHa, read-out: IC50 [M] (ProliFiler-140), SiHa (Ovary)): 1.13e-07 M
pIC50 (T47D, T-47D): 7.01
IC50 (T47D, read-out: IC50 [M] (ProliFiler-140), T-47D (Breast)): 9.8e-08 M
IC50 (T98G, read-out: IC50 [M] (ProliFiler-140), T98G (Brain)): 8.08e-08 M
IC50 (U2OS, read-out: IC50 [M] (ProliFiler-140), U2OS (Bone)): 3.19e-08 M
IC50 (U-87 MG, read-out: IC50 [M] (ProliFiler-140), U87MG (Brain)): 1.5e-07 M
IC50 (U-118-MG, read-out: IC50 [M] (ProliFiler-140), U118MG (Brain)): 1.86e-07 M
IC50 (U-251, read-out: IC50 [M] (ProliFiler-140), U251MG (Brain)): 1.2e-07 M
IC50 (U-266, read-out: IC50 [M] (ProliFiler-140), U-266 (Blood)): 9.38e-09 M
IC50 (U-937, read-out: IC50 [M] (ProliFiler-140), U-937 (Blood)): 1.15e-08 M
IC50 (ZR-75-1, read-out: IC50 [M] (ProliFiler-140), ZR-75-1 (Breast)): 3.07e-07 M
Reductive Activation Index (Hs 746T (Stomach)): 13
Reductive Activation Index (HuH7 (Liver)): 6.45
Reductive Activation Index (Hutu 80 (Duodenum)): 5.62 and 5.6
Reductive Activation Index (JIMT-1 (Breast)): 15
Reductive Activation Index (K562 (Blood)): 8.6
Reductive Activation Index (KARPAS 299 (Blood)): 6.55
Reductive Activation Index (KG-1 (Blood)): 3.24
